Like-named read-outs stand apart in the source and are kept apart here.
Columns and labels:
[1] = In situ rat intestinal perfusion (site-specific absorption); format: in vivo; details: for Peff Meloprolol: 20 μg/mL
From the text: The rat intestine perfusion technique is a direct way to measure the regional absorption properties of a test compound in the gastrointestinal tract. Rat intestinal permeability coefficient (Peff) can be used to predict human in vivo oral absorption of passively absorbed compounds. Fagerholm, M. Johansson, and […], “Comparison between permeability coefficients in rat and human jejunum”, Pharm. […] Meanwhile, some other characteristics such as formulable Maximum Absorbable Dose (MAD), FDA Biopharmaceutical Classification, etc. can also be estimated. […] Rats used in this study were Charles River CD males, ranging in weight from approximately 300-350 grams. Metoprolol (a well-absorbed and passively transported compound) was used as a standard and tested simultaneously along with the ODV compounds. […] All chemicals were of analytical grade. After each experiment, all the analytic assays were performed promptly. For isotope determinations, 0.5 mL of perfusate sample containing ^14C PEG-4000 and ^3H-mannitol was mixed with 5 mL of scintillation cocktail. Radioactivity was counted in a liquid scintillation counter (Wallac 1409). Glucose concentration was determined by the glucose oxidase method (Biochemistry Analyzer). Metoprolol and the ODV compounds were analyzed by HPLC-UV/Vis (HP-1100 with a diode-array detector), using a YMC AQ 120 μ, 5 μ, 150×4.6 mm column and step gradient mobile phase containing water/0.1% TFA and acetonitrile. The ODV compounds and metoroplol were detected at 226 and 272 nm UV wavelength, respectively. Blank perfusate was assayed to evaluate the interference at these chromatographic conditions. The perfusions were performed in three intestinal sections of anesthetized rats: duodenum-jejunum, ileum, and colon. The lengths of the segments were approximately 10-12 cm for small intestine segments and 5-6 cm for colon segments. An inflow cannula was inserted at the proximal end and an outflow cannula was inserted at the distal end. Perfusate was pumped through the segment at 0.19 mL/min, and collected at 20, 40, 55, 70, 85 and 100 minutes. […] The disappearance rates of ODV compound, metoprolol, and glucose were determined from each collection interval by comparing to the initial compound solution remaining in the syringe at the end of the 100 minutes. This is to correct for any losses due to binding to the syringe or tubing. Meanwhile, drug concentration in perfusate samples were corrected for water influx/efflux, which was computed, based on ^14C-PEG-4000 concentration changes. […] Values below this range would indicate tissue damage that allows passage of PEG-4000 outside of the perfused segment, while values above this range would indicate significant water movement out of the segment. Water movement across the gut wall was determined by calculation of net water fluid: Net Water Flux (NWF)=[(1-[…] where PEGout and PEGin are the amount of radioactivity (dpm) of ^14C-PEG-4000 in inlet and outlet sides of the perfused intestinal segment, respectively; Q is the flow rate of perfusate; and L is the length of perfused segment (cm). The presence of the ODV compound in the perfusate was determined by HPLC. The amount of drug present at each time point was corrected for water movement across the wall of the intestine: Cout,[…]) where Cout is the concentration of drug in outlet perfusate; Cout,corr is the concentration of drug in outlet perfusate corrected for water moving in or out of the segment, as determined by the recovery of ^14C-PEG-4000. Effective intestinal permcability, Peff (cm/sec), was determined by the following equation: […] Cin is the concentration of drug in inlet perfusate; 2 μrL is the inner surface area of the perfused segment, with r assumed to be 0.18 cm in the rat (see G. Amidon, […]. Crison. “A theoretical basis for a biopharmaceutic drug classification: The correlation of in vitro drug product dissolution and in vivo bioavailability.” Pharm. Res. 12, 1995, 413-420) and L the length of the perfused segment (cm). […]

[2] = Stability in perfusion buffer and jejunal fluids; format: in vitro ADME, rat; details: for stability in blank perfusion buffer and jejunal fluids: pH 6.8, 37° C., up to 6 hours; for relative percentage remaining of HPLC peak area: 37° C.
Protocol: The stability of ODV succinate or fumarate in the solutions of blank perfusion buffer (Pβ), and jejunal fluids (perfusion buffer collected by washing the isolated jejunal segment, pH=6.8) was determined at 37° C. for up to 6 hours.

[3] = Aqueous solubility (UV spectrophotometry); format: physicochemical; details: water, thermodynamic from solid
Protocol: The aqueous solubility (reported above) of Form I of ODV succinate was determined according to the following procedure. Materials • Spectrophotometer—Capable of isolating a bandwidth of 2 nm or less at the wavelength of maximum absorbance, and of measuring absorbances in the 0.0 to 1.0 range with a precision of 0.01. A Cary Model 219 spectrophotometer or equivalent is suitable. • Cells—Silica, 1 cm. • Filters—0.45 micron Nylon filters which are chemical resistant or equivalent • Bottles—Glass screw top bottles having a 15 mL or greater capacity. • Shaker—A lateral shaker, wrist shaker, or a vibrator which will not generate heat is suitable. A. For Non UV Absorbing Solvents • 1. To a bottle weigh an amount of sample equivalent to approximately 1½ times the solubility. • 2. […] Agitate the bottles at ambient room temperature for at least 16 hours. • 4. Obtain a clear filtrate layer by either centrifugation of filtration being careful to avoid evaporation. • 5. Quantitatively transfer the solution to a volumetric flask and dilute to volume with water. • 6. Blank the instrument for water. • 7. Make quantitative dilutions to arrive at a suitable concentration for measurement. […] Quantitatively transfer to a volumetric flask with the same solvent used in preparing the standard solution. • 6. Make dilutions as necessary to obtain a concentration suitable for quantitative measurement. […]

[4] = Physical stability of the crystalline form; format: physicochemical
[5] = Bioavailability of O-desmethyl-venlafaxine in beagle dogs; format: in vivo; details: male, dog, plasma, free ODV levels, mean (% CV); for bioavailability: read-out: Absolute Bioavailability (%)
Protocol: Prior to administration, the oral solution (25 mg/mL) was diluted to a concentration of 7.5 mg/mL with water. […] Six male beagle dogs with body weights ranging between 10.2 and 16.0 kg were used in this study. The dogs were housed and given free access to water and food. The six dogs were dosed in a 4 period study. In Period 1, the dogs received 1 mL of the intravenous solution. In Period 2, the dogs received 10 mL of the oral solution. In Period 3, the dogs received the tablet. In Period 4, the dogs received the capsule. There was a one week wash out period between the first two treatment periods and a one month wash out period between treatment periods 2 and 3. Between periods 3 and 4, there was a one week wash out period. For periods 1 and 2, all dogs were fasted overnight with free access to water and fed after the four-hour bleeding. […] Plasma was separated in a refrigerated centrifuge and stored at -70° C. Plasma samples were then assayed. Plasma O-desmethyl-venlafaxine concentrations were determined by the HPLC method using mass spectrometric detection described in Hicks, […]., Russel, […] high-performance liquid chromatographic method for the simultaneous determination of venlafaxine and O-desmethylvenlafaxine in biological fluids”, Ther. Drug Monit. 16:100-107 (1994), which is hereby incorporated by reference. […] O-desmethyl-venlafaxine-glucuronide levels were determined by subtracting the O-desmethyl-venlafaxine (separate extraction procedure without the use of β-glucuronidase and analyzed by HPLC-MS) concentrations from the total O-desmethyl-venlafaxine concentrations. Noncompartmental pharmacokinetic parameters were calculated from the individual dog plasma O-desmethyl-venlafaxine and O-desmethyl-venlafaxine-glucuronide concentration-time profiles. Area under the plasma concentration-time curves (AUC0-μ) values were calculated by the addition of AUCLast (AUCLast=the linear trapezoid rule from time zero to the last measurable plasma concentration, […]) and […]/lambda. The values for lambda were determined from the long-linear portion of the terminal slope of the plasma O-desmethyl-venlafaxine and O-desmethyl-venlafaxine-glucuronide concentration-time profile after the intravenous dose. […] The peak plasma concentration (Cmax) and the time to reach Cmax (tmax) were noted directly from the plasma concentration-time profiles. Absolute bioavailability was determined by comparing the dose normalized AUC0-μvalues following the intravenous administration. All levels reported as below limit of quantitation (BLQ) were assigned a value of zero for calculation purposes.

[6] = system: Adrenergic α; details: at 1 uM; cited from earlier work
[7] = system: Norepinephrine reuptake; details: in vitro; read-out: Inhibition of amine reuptake (IC50), Norepinephrine; cited from earlier work
[8] = system: Dopamine reuptake; details: in vitro; read-out: Inhibition of amine reuptake (IC50), Dopamine; cited from earlier work
[9] = system: Opiate; details: at 1 uM; cited from earlier work
[10] = system: Serotonin reuptake; details: in vitro; read-out: Inhibition of amine reuptake (IC50), Serotonin; cited from earlier work
[11] = system: Cholinergic; details: at 1 uM; cited from earlier work
[12] = system: Reserpine-Induce Hypothermia; details: i.p.; cited from earlier work
[13] = male, Charles River CD, rat, in vivo, 50 μg/mL, pH 6.8
[14] = po, 75 mg, Oral Solution (75 mg)

CN(C)CC(c1ccc(O)cc1)C1(O)CCCCC1.O=C(O)/C=C/C(=O)O (centres unmarked) [ODV fumarate, reference compound]
MAD predicted ([1]; rat, in vivo): about 440 mg
Peff as percentage of the succinate's Peff values ([1]; rat, in vivo): 27μ40
Peff values ([1]; rat, in vivo): 0.24-0.68 ×10^−5 cm/sec
in vivo Fa estimated ([1]; rat, in vivo): 33-45%
stability in blank perfusion buffer and jejunal fluids [2]: no apparent degradation/metabolism

CN(C)CC(c1ccc(O)cc1)C1(O)CCCCC1.O=C(O)CCC(=O)O (centres unmarked) [Form I, O-des-methyl-Venlafaxine succinate monohydrate]
solubility ([3]; at 25° C.): 32.2 mg/mL
physically stable at relative humidity [4]: 5-95%
physically stable up to (temperature) [4]: at least 105 °C

COCCc1ccc(OCC(O)CNC(C)C)cc1 (centres unmarked) [Meloprolol, Metoprolol, reference compound]
Peff Meloprolol ([1]; Colon, perfused together with ODV fumarate): 11 10^−5 cm/sec
Peff Meloprolol ([1]; Colon, perfused together with ODV succinate): 0.583 ± 0.087 10^−5 cm/sec
Peff Meloprolol ([1]; Ileum, perfused together with ODV fumarate): 53 10^−5 cm/sec
Peff Meloprolol ([1]; Ileum, perfused together with ODV succinate): 3.22 ± 0.07 10^−5 cm/sec
Peff Meloprolol ([1]; Jejunum, perfused together with ODV fumarate): 1.78 ± 0.93 10^−5 cm/sec
Peff Meloprolol ([1]; Jejunum, perfused together with ODV succinate): 2.50 ± 0.11 10^−5 cm/sec

CN(C)CC(c1ccc(O)cc1)C1(O)CCCCC1.O=C(O)CCC(=O)O (centres unmarked) [ODV succinate, O-desmethyl-venlafaxine succinate]
solubility ([3]; general statement): > 30 mg/mL
Peff as percentage of metoprolol's Peff value [1, 13]: about 10%
Peff's ratio of duodenum-jejunum vs. ileum vs. colon [1, 13]: 1.00:1.90:0.07
human in vivo Fa predicted ([1]; rat, in vivo, 50 μg/mL, pH 6.8): 60-77%
relative percentage remaining of HPLC peak area ([2]; Blank Perfusion Buffer, 0 hours): 100.0%
relative percentage remaining of HPLC peak area ([2]; Blank Perfusion Buffer, 2 hours): 99.9%
relative percentage remaining of HPLC peak area ([2]; Blank Perfusion Buffer, 3 hours): 100.3%
relative percentage remaining of HPLC peak area ([2]; Blank Perfusion Buffer, 6 hours): 99.9%
relative percentage remaining of HPLC peak area ([2]; Intestinal fluid (pH 6.8, total protein approx. 0.2 mg/ml), 0 hours): 100.0%
relative percentage remaining of HPLC peak area ([2]; Intestinal fluid (pH 6.8, total protein approx. 0.2 mg/ml), 2 hours): 99.6%
relative percentage remaining of HPLC peak area ([2]; Intestinal fluid (pH 6.8, total protein approx. 0.2 mg/ml), 3 hours): 99.8%
relative percentage remaining of HPLC peak area ([2]; Intestinal fluid (pH 6.8, total protein approx. 0.2 mg/ml), 6 hours): 100.1%
stability in blank perfusion buffer and jejunal fluids [2]: no apparent degradation/metabolism
AUC ([5]; iv, 25 mg, Intravenous Solution (25 mg)): 746 ng·h/mL
AUC ([5]; po, 75 mg, Capsule (75 mg)): 904 ng·h/mL
Cmax ([5]; po, 75 mg, Capsule (75 mg)): 465 ng/mL
Tmax ([5]; po, 75 mg, Capsule (75 mg)): 33 min
bioavailability ([5]; po, 75 mg, Capsule (75 mg)): 40%
AUC [5, 14]: 835 ng·h/mL
Cmax [5, 14]: 450 ng/mL
Tmax [5, 14]: 30 min
bioavailability [5, 14]: 37%
AUC ([5]; po, 75 mg, Tablet (75 mg)): 677 ng·h/mL
Cmax ([5]; po, 75 mg, Tablet (75 mg)): 115 ng/mL
Tmax ([5]; po, 75 mg, Tablet (75 mg)): 175 min
bioavailability ([5]; po, 75 mg, Tablet (75 mg)): 31%

CN(C)CC(c1ccc(O)cc1)C1(O)CCCCC1 (centres unmarked) [O-desmethylvenlafaxine, 1-[2-(dimethylamino)-1-(4-phenol)ethyl]-cyclohexanol]
Affinity for Various Neuroreceptors (% inhibition), Adrenergic α [6]: 0%
IC50 [7]: 1160 nM
IC50 [8]: 13400 nM
Affinity for Various Neuroreceptors (% inhibition), Opiate [9]: 7%
IC50 [10]: 180 nM
Affinity for Various Neuroreceptors (% inhibition), Cholinergic [11]: 7%
Reversal of Reserpine-Induce Hypothermia (minimum effect) [12]: 3 mg/kg
